{
  "source": "patent US6475530B1",
  "about": "“Methods and compositions for producing weight loss” (priority 2000, dated 2002)",
  "origin": "cited, not measured here",
  "key": {"[1]": {"details": "mice; substance by itself"}, "[2]": {"details": "single dose of 300 mg. per day; healthy young adults"}, "cyclooxygenase": {"tested_on": "cyclooxygenase", "details": "single large dose"}, "growth hormone": {"tested_on": "growth hormone", "details": "healthy postmenopausal women; 9 grams per day"}},
  "data": [
    {"smiles": "O=C(O)c1cccnc1", "note": "[nicotinic acid]", "values": [
      {"measurement": "effect on free fatty acids", "setting": "free fatty acids; given in the daytime", "result": "reduces free fatty acids temporarily, but then there is a rebound effect"},
      {"measurement": "duration of reduction in free fatty acids", "setting": "free fatty acids; given nocturnally, constant infusion from 8:00 PM to 6 AM, without rebound effect", "result": 24, "unit": "h"}
    ]},
    {"smiles": "CC(=O)Oc1ccccc1C(=O)O", "note": "[aspirin, acetylsalicylic acid]", "values": [
      {"measurement": "weight loss", "setting": "[1]", "result": "no weight loss"},
      {"measurement": "time to gastric erosion", "setting": "[2]", "result": "5 to 7", "unit": "days"},
      {"measurement": "time for prostaglandin levels to return to baseline", "setting": "cyclooxygenase", "result": "≤ 6", "unit": "h"}
    ]},
    {"smiles": "N=C(N)NCCC[C@H](N)C(=O)O", "note": "[L-arginine]", "values": [
      {"measurement": "increase in growth hormone", "setting": "growth hormone", "result": 72, "unit": "%"}
    ]}
  ]
}
